Results: patent US20120283403A1, “Phenylboronic Acid Monomer and Phenylboronic Acid Polymer” (National Institute for Materials Science, priority 2010, published 2012)

Excerpt: Subsequently, for the sample 1, the comparative sample 1 and the comparative sample 2, the relationships between glucose concentrations and apparent changes in pKa were derived by acid-base titration under various glucose concentration conditions (0 g/L, 1 g/L, 3 g/L, 5 g/L, and 10 g/L).

SMILES: C=CC(=O)NCCNC(=O)c1ccc(B(O)O)cc1F [sample 1, 4-(2-acrylamideethylcarbamoyl)-3-fulorophenylboronic acid]
- apparent pKa (all glucose concentrations (0, 1, 3, 5 and 10 g/L), FIG. 2, samples a1 to a5): < 7.4
- degrees of decrease in pKa according to the increase in the concentrations of glucose (compared with comparative samples 1 and 2, glucose 0 to 10 g/L): excellent
